System: gut microbiota
Assay: Gut (cecal) microbiota analysis by 16S rRNA sequencing
Assay type: in vivo, mice
Details: for amount of OTUs vs control: p < 0.001; for gut community richness (Sobs index) vs control: p < 0.01
Method: Fresh cecal samples from 24 (n = 6 per group) mice were collected at 1, 8 and 30 h after oral administration of 500 mg·kg^−1 MHO7 meanwhile control group was collected at 8 h after oral the same volume corn oil, respectively. All of the cecal samples were collected in sterile environments and containers, snap-frozen in liquid nitrogen, and then stored at −80 °C.
Microbial DNA was extracted from 24 cecal samples using the E.Z.N.A.® soil DNA Kit (Omega Bio-tek, Norcross, GA, USA) according to manufacturer’s protocols. The final DNA concentration and purification were determined by NanoDrop 2000 UV-vis spectrophotometer (Thermo Scientific, Wilmington, DE, USA), and DNA quality was checked by 1% agarose gel electrophoresis. The V3-V4 hypervariable regions of the bacteria 16S rRNA gene were amplified with primers 338F (5’- […]-3’) and 806R (5’-[…]-3’) by thermocycler PCR system (GeneAmp 9700, ABI, Foster City, CA, USA). The PCR reactions were conducted using the following program: 3 min of denaturation at 95 °C; 27 cycles of 30 s at 95 °C, 30 s for annealing at 55 °C, and 45 s for elongation at 72 °C; and a final extension at 72 °C for 10 min. PCR reactions were performed in triplicate 20 μL mixture containing 4 μL of 5 × FastPfu Buffer, 2 μL of 2.5 mM·L^−1 dNTPs, 0.8 μL of each primer (5 μM·L^−1), 0.4 μL of FastPfu Polymerase, and 10 ng of template DNA. The resulted PCR products were extracted from a 2% agarose gel and further purified using the AxyPrep DNA Gel Extraction Kit (Axygen Biosciences, Union City, CA, USA) and quantified using QuantiFluor ™ -ST (Promega, Madison, […], USA) according to the manufacturer’s protocol.
Purified amplicons were pooled in equimolar and paired-end sequenced (2 × 300) on an Illumina MiSeq platform (Illumina, San Diego, CA, USA) according to the standard protocols by Majorbio Bio-Pharm Technology Co. Ltd. (Shanghai, China).
Raw fastq files were quality-filtered by Trimmomatic and merged by FLASH according to the following criteria: (i) The reads were truncated at any site receiving an average quality score < 20 over a 50 bp sliding window. (ii) Sequences whose overlap was longer than 10 bp were merged according to their overlap with mismatch no more than 2 bp. (iii) Sequences of each sample were separated according to barcodes (exactly matching) and Primers (allowing 2 nucleotide mismatching), and reads containing ambiguous bases were removed. Operational taxonomic units (OTUs) were clustered using UPARSE (version 7.1, http://drive5.com/uparse/) at a 97% similarity level with a novel “greedy” algorithm that performs chimera filtering and OTU clustering simultaneously. The taxonomy of each 16S rRNA gene sequence was analyzed by RDP Classifier algorithm (http://rdp.cme.msu.edu/) against the Silva (SSU123) 16S rRNA database using confidence threshold of 70%.

[1] = MHO7-1h group, cecal, oral 500 mg·kg^−1
[2] = MHO7-8h group, cecal, oral 500 mg·kg^−1
[3] = MHO7-30h group, cecal, oral 500 mg·kg^−1

## CC(C)=C/C=C/[C@H](C)[C@H]1CC[C@]2(C)C[C@@H]3C(C)=CC(=O)[C@H]3/C(C=O)=C\C[C@@H]12 [MHO7, 6-epi-ophiobolin G]
MHO7-1 h group
  richness, diversity, OTU number of gut microbiome vs control: no significant difference
[1]
  Relative abundance, class Bacilli: 10.08±7.69%
  Relative abundance, class Clostridia: 38.58 ± 11.1%
  Relative abundance, class Mollicutes: 0.46±0.25%
  Relative abundance, class Verrucomicrobiae: 0.0019±0.002%
  Relative abundance, family Bacteroidales_S24-7_group: 33.99±6.67%
  Relative abundance, family Lachnospiraceae: 27.23±10.42%
  Relative abundance, family Lactobacillaceae: 10.05±7.69%
  Relative abundance, family Rikenellaceae: 7.09±0.86%
  Relative abundance, family Ruminococcaceae: 10.04±1.97%
  Relative abundance, family Verrucomicrobiaceae: 0.0019±0.0021%
  Relative abundance, genus Anaeroplasma: 0.12±0.11%
  Relative abundance, genus Coprococcus_1: 0.19±0.10%
  Relative abundance, genus Family_XIII_AD3011_group: 0.067±0.041%
  Relative abundance, genus Lachnoclostridium: 0.51±0.21%
  Relative abundance, genus Lactobacillus: 10.05±7.69%
  Relative abundance, genus Papillibacter: 0.0062±0.0066%
  Relative abundance, genus Peptococcus: 0.010±0.0061%
  Relative abundance, genus Prevotellaceae_NK3B31_group: 0.46±0.31%
  Relative abundance, genus Prevotellaceae_UCG-001: 0.78±0.51%
  Relative abundance, genus Rikenellaceae_RC9_gut_group: 2.82±0.76%
  Relative abundance, genus Ruminiclostridium: 0.78±0.59%
  Relative abundance, genus Ruminiclostridium_5: 0.34±0.14%
  Relative abundance, genus Ruminiclostridium_9: 0.76±0.29%
  Relative abundance, genus Ruminococcaceae_NK4A214_group: 0.076±0.024%
  Relative abundance, genus Ruminococcaceae_UCG-009: 0.066±0.050%
  Relative abundance, genus Ruminococcaceae_UCG-010: 0.12±0.046%
  Relative abundance, genus Ruminococcaceae_UCG-014: 2.73±0.93%
  Relative abundance, genus Ruminococcus_1: 1.53±1.04%
  Relative abundance, genus Streptococcus: 0.023±0.0050%
  Relative abundance, genus [Eubacterium]_coprostanoligenes_group: 0.13±0.12%
  Relative abundance, genus [Eubacterium]_ventriosum_group: 0.13±0.089%
  Relative abundance, genus g__norank_f__Bacteroidales_S24-7_group: 33.99±6.67%
  Relative abundance, genus g__norank_f__Christensenellaceae: 0.034±0.014%
  Relative abundance, genus g__norank_f__Lachnospiraceae: 6.456±2.68%
  Relative abundance, genus g__norank_f__Ruminococcaceae: 0.31±0.22%
  Relative abundance, genus norank_o__Mollicutes_RF9: 0.34±0.17%
  Relative abundance, order Anaeroplasmatales: 0.12±0.11%
  Relative abundance, order Bacillales: 0.0000%
  Relative abundance, order Clostridiales: 38.54±11.15%
  Relative abundance, order Lactobacillales: 10.10±7.65%
  Relative abundance, order Mollicutes_RF9: 0.33±0.16%
  Relative abundance, order Verrucomicrobiales: 0.0022±0.0027%
  Relative abundance, phylum Deferribacteres: 0.14±0.12%
  Relative abundance, phylum Proteobacteria: 0.18±0.045%
  Relative abundance, phylum Saccharibacteria: 0.47±0.28%
  Relative abundance, phylum Tenericutes: 0.46±0.25%
MHO7-8 h group, OTU level, p < 0.05
  gut community diversity (Shannon index) vs control: decreased significantly
MHO7-8 h group
  amount of OTUs vs control: remarkable reduction
  gut community richness (Sobs index) vs control: remarkable reduction
[2]
  Relative abundance, class Bacilli: 11.49±12.09%
  Relative abundance, class Clostridia: 28.98 ± 20.11%
  Relative abundance, class Mollicutes: 0.0075±0.0048%
  Relative abundance, class Verrucomicrobiae: 0.80±1.18%
  Relative abundance, family Bacteroidales_S24-7_group: 33.65±5.47%
  Relative abundance, family Lachnospiraceae: 21.66±15.88%
  Relative abundance, family Lactobacillaceae: 11.34±12.11%
  Relative abundance, family Rikenellaceae: 3.66±2.13%
  Relative abundance, family Ruminococcaceae: 6.20±4.57%
  Relative abundance, family Verrucomicrobiaceae: 0.80±1.18%
  Relative abundance, genus Coprococcus_1: 0.21±0.17%
  Relative abundance, genus Family_XIII_AD3011_group: 0.0069±0.0077%
  Relative abundance, genus Lachnoclostridium: 0.81±0.61%
  Relative abundance, genus Lactobacillus: 11.34±12.11%
  Relative abundance, genus Papillibacter: 0.0025±0.0061%
  Relative abundance, genus Peptococcus: 0.0050±0.010%
  Relative abundance, genus Prevotellaceae_NK3B31_group: 2.54±2.44%
  Relative abundance, genus Prevotellaceae_UCG-001: 4.09±3.41%
  Relative abundance, genus Rikenellaceae_RC9_gut_group: 0.088±0.089%
  Relative abundance, genus Ruminiclostridium: 0.36±0.31%
  Relative abundance, genus Ruminiclostridium_5: 0.21±0.21%
  Relative abundance, genus Ruminiclostridium_9: 0.60±0.59%
  Relative abundance, genus Ruminococcaceae_NK4A214_group: 0.023±0.021%
  Relative abundance, genus Ruminococcaceae_UCG-009: 0.063±0.072%
  Relative abundance, genus Ruminococcaceae_UCG-010: 0.036±0.042%
  Relative abundance, genus Ruminococcaceae_UCG-014: 0.19±0.25%
  Relative abundance, genus Ruminococcus_1: 0.38±0.32%
  Relative abundance, genus Staphylococcus: 0.066±0.060%
  Relative abundance, genus Streptococcus: 0.029±0.016%
  Relative abundance, genus Sutterella: 0.0069±0.010%
  Relative abundance, genus [Eubacterium]_coprostanoligenes_group: 0.22±0.23%
  Relative abundance, genus [Eubacterium]_ventriosum_group: 0.012±0.020%
  Relative abundance, genus g__norank_f__Bacteroidales_S24-7_group: 33.65±5.47%
  Relative abundance, genus g__norank_f__Christensenellaceae: 0.011±0.0079%
  Relative abundance, genus g__norank_f__Lachnospiraceae: 7.54±4.66%
  Relative abundance, genus g__norank_f__Ruminococcaceae: 0.31±0.26%
  Relative abundance, genus norank_o__Mollicutes_RF9: 0.0075±0.0047%
  Relative abundance, order Anaeroplasmatales: 0.00028±0.00068%
  Relative abundance, order Bacillales: 0.071±0.067%
  Relative abundance, order Clostridiales: 28.89±20.03%
  Relative abundance, order Lactobacillales: 11.34±12.02%
  Relative abundance, order Mollicutes_RF9: 0.0057±0.0040%
  Relative abundance, order Verrucomicrobiales: 0.78±1.15%
  Relative abundance, phylum Deferribacteres: 0.0044±0.0050%
  Relative abundance, phylum Proteobacteria: 2.05±1.47%
  Relative abundance, phylum Saccharibacteria: 0.35±0.61%
  Relative abundance, phylum Tenericutes: 0.0075±0.0047%
MHO7-30 h group
  amount of OTUs vs control: remarkable reduction
  gut community richness (Sobs index) vs control: remarkable reduction
[3]
  Relative abundance, class Bacilli: 3.25±3.05%
  Relative abundance, class Clostridia: 47.82 ± 20.66%
  Relative abundance, class Mollicutes: 0.0012±0.0031%
  Relative abundance, class Verrucomicrobiae: 2.51±3.67%
  Relative abundance, family Bacteroidales_S24-7_group: 19.34±6.97%
  Relative abundance, family Lachnospiraceae: 42.58±19.32%
  Relative abundance, family Lactobacillaceae: 3.21±2.99%
  Relative abundance, family Rikenellaceae: 3.19±2.16%
  Relative abundance, family Ruminococcaceae: 4.13±1.97%
  Relative abundance, family Verrucomicrobiaceae: 2.51±3.67%
  Relative abundance, genus Coprococcus_1: 0.11±0.068%
  Relative abundance, genus Family_XIII_AD3011_group: 0.021±0.014%
  Relative abundance, genus Lachnoclostridium: 2.42±2.02%
  Relative abundance, genus Lactobacillus: 3.21±2.99%
  Relative abundance, genus Papillibacter: 0.00062±0.0015%
  Relative abundance, genus Peptococcus: 0.0050±0.0056%
  Relative abundance, genus Prevotellaceae_NK3B31_group: 0.14±0.19%
  Relative abundance, genus Prevotellaceae_UCG-001: 1.07±1.13%
  Relative abundance, genus Rikenellaceae_RC9_gut_group: 0.042±0.084%
  Relative abundance, genus Ruminiclostridium: 0.079±0.076%
  Relative abundance, genus Ruminiclostridium_5: 0.27±0.23%
  Relative abundance, genus Ruminiclostridium_9: 0.41±0.20%
  Relative abundance, genus Ruminococcaceae_NK4A214_group: 0.020±0.023%
  Relative abundance, genus Ruminococcaceae_UCG-009: 0.012±0.015%
  Relative abundance, genus Ruminococcaceae_UCG-010: 0.0062±0.0061%
  Relative abundance, genus Ruminococcaceae_UCG-014: 0.022±0.030%
  Relative abundance, genus Ruminococcus_1: 0.071±0.15%
  Relative abundance, genus Streptococcus: 0.0025±0.0031%
  Relative abundance, genus Sutterella: 0.090±0.090%
  Relative abundance, genus [Eubacterium]_coprostanoligenes_group: 0.28±0.50%
  Relative abundance, genus [Eubacterium]_ventriosum_group: 0.022±0.041%
  Relative abundance, genus g__norank_f__Bacteroidales_S24-7_group: 19.34±6.97%
  Relative abundance, genus g__norank_f__Christensenellaceae: 0.0069±0.0087%
  Relative abundance, genus g__norank_f__Lachnospiraceae: 19.81±11.07%
  Relative abundance, genus g__norank_f__Ruminococcaceae: 0.16±0.13%
  Relative abundance, genus norank_o__Mollicutes_RF9: 0.0012±0.0031%
  Relative abundance, order Anaeroplasmatales: 0.00000%
  Relative abundance, order Bacillales: 0.00034±0.00084%
  Relative abundance, order Clostridiales: 47.86±20.61%
  Relative abundance, order Lactobacillales: 3.26±3.04%
  Relative abundance, order Mollicutes_RF9: 0.0014±0.0025%
  Relative abundance, order Verrucomicrobiales: 2.52±3.65%
  Relative abundance, phylum Deferribacteres: 0.25±0.23%
  Relative abundance, phylum Proteobacteria: 1.34±1.58%
  Relative abundance, phylum Saccharibacteria: 0.0069±0.0055%
  Relative abundance, phylum Tenericutes: 0.0013±0.0031%
At 1, 8 or 30 h after oral administration
  abundance of dominant phyla Firmicutes and Bacteroidetes: no significant differences

Reference: article PMC6950057, “Toxicity, Pharmacokinetics, and Gut Microbiome of Oral Administration of Sesterterpene MHO7 Derived from a Marine Fungus” (Marine Drugs, 2019)
